Assay results as given in patent US11465980B2, “6-membered aza-heterocyclic containing delta-opioid receptor modulating compounds, methods of using and making the same” (Trevena, Inc., priority 2015, dated 2022).

Assays:
mouse = assay: Tactile allodynia produced by nitroglycerin (migraine model, mouse); type: in vivo; details: route sc, nitroglycerin 10 mg/kg ip, p < 0.05 vs vehicle
Description: Compounds were tested for efficacy in rodent models of nitroglycerine induced migraine. In this model both rats and mice can be induced to have a behavioral response consistent with the progression of a migraine attack by the intraperitoneal injection of nitroglycerin. In this test mice or rats (n=8/group) are given an intraperitoneal injection of nitroglycerin at 10 mg/kg. After 90 minutes the animals are subcutaneously dosed with test compound. A measurement of mechanical allodynia will be obtained using the up/down method with seven von Frey monofilaments. There is a specific series used for rat and mouse. Each monofilament is delivered to the hind paw for approximately 1-2 seconds. If there is a response, the next lower force will be delivered. This procedure will be performed until no response was made at the highest force or until four stimuli are administered following the initial response. The 50% paw withdrawal threshold for the hind paw will be calculated using the following formula: [Xth]log=[vFr]log+ky where [vFr] is the force of the last von Frey used, k is the average interval (in log units) between the von Frey monofilaments, and y is a value that depends upon the pattern of withdrawal responses. Testing for tactile sensitivity will be performed and a withdrawal value will be assigned as the tactile sensitivity (expressed in grams of force required to elicit a response) for the injected paw for each animal. Data is presented as the mean grams required to produce a hind paw withdrawal from the von Frey stimulus. […] Compounds found to be effective in this model of migraine at the doses indicated, although other doses may also be active. Other compounds described herein were not necessarily tested, but are expected to be able have some level of efficacy.

male c57bl6J mice = assay: Tactile allodynia produced by repeat dosing of test drug (induction of medication overuse headache); type: in vivo, mouse; details: daily for 11 days; B1049 10 mg/kg s.c., sumatriptan 0.6 mg/kg i.p.; FIG. 5
Description: Mice (25 male c57bl6J mice, n=4-5/group) were habituated for 2 days on testing rack prior to injections. Mice were treated with vehicle (VEH-VEH (saline), VEH-B1049 (10% BCD-saline)), sumatriptan (SUMA) (0.6 mg/kg, i.p.), SNC80 (10 mg/kg, i.p.), or B1049 (10 mg/kg, s.c.) daily for 11 days. Mechanical sensitivity was measured as the 50% withdrawal threshold to manual von Frey hair stimulation on days 1 and 11. On these days, mice were habituated to the rack for 15-20 min, following which baseline mechanical thresholds were determined prior to administration of drug or control. On day 1 following assessment of baseline mechanical threshold, mice were weighed and injected with drug or control and returned to home cage. The results are illustrated in FIG. 5.

rat = assay: Tactile allodynia produced by nitroglycerin (migraine model, rat); type: in vivo; details: route sc, po, nitroglycerin 10 mg/kg ip, p < 0.05 vs vehicle

With `COCCOc1cccc([C@@H]2CCN(CCn3cccc3)[C@H](C)[C@H]2COc2ccc3c(c2)C(=O)NC3)c1` (relative stereo) [Compound B1049, (−)-6-{[(trans, trans)-4-[3-(2-methoxyethoxy)phenyl]-2-methyl-1-[2-(1H-pyrrol-1-yl)ethyl]piperidin-3-yl]methoxy}-2,3-dihydro-1H-isoindol-1-one] the “Active Migraine Doses” value (mouse) was ≤10 mg/kg, the “induction of medication overuse headache (tactile allodynia after repeat dosing)” value (male c57bl6J mice) was “does not induce medication overuse headache” and the “Active Migraine Doses” value (rat) was ≤30 mg/kg.
